Experimental data reported in the kinase profiling compilation of Christmann-Franck et al. (2016).

Columns and labels:
Assay in all cases: radiometric filter-binding kinase assay, Kinase HotSpot
Details in all cases: compound 0.5 µM; ATP 10 µM
ACVR1 (human) = ACVR1 (human) (UniProt Q04771)
AKT3 (human) = AKT3 (human) (UniProt Q9Y243)
BMX (human) = BMX (human) (UniProt P51813)
CAMK4 (human) = CAMK4 (human) (UniProt Q16566)
CDK5 CDK5R1 p25 (human) = CDK5 CDK5R1 p25 (human) (UniProt Q00535+Q15078)
CLK4 (human) = CLK4 (human) (UniProt Q9HAZ1)
CSF1R (human) = CSF1R (human) (UniProt P07333)
CSNK1E (human) = CSNK1E (human) (UniProt P49674)
ERBB2 (human) = ERBB2 (human) (UniProt P04626)
ERBB4 (human) = ERBB4 (human) (UniProt Q15303)
FGFR2 (human) = FGFR2 (human) (UniProt P21802)
FGFR3 (human) = FGFR3 (human) (UniProt P22607)
FGFR4 (human) = FGFR4 (human) (UniProt P22455)
JAK3 JH1 JH2 (human) = JAK3 JH1 JH2 (human) (UniProt P52333)
LTK (human) = LTK (human) (UniProt P29376)
MAP3K10 (human) = MAP3K10 (human) (UniProt Q02779)
MAP4K4 (human) = MAP4K4 (human) (UniProt O95819)
MAPK12 (human) = MAPK12 (human) (UniProt P53778)
MAPK14 (human) = MAPK14 (human) (UniProt Q16539)
MAPK3 (human) = MAPK3 (human) (UniProt P27361)
MAPKAPK5 (human) = MAPKAPK5 (human) (UniProt Q8IW41)
MET (human) = MET (human) (UniProt P08581)
MINK1 (human) = MINK1 (human) (UniProt Q8N4C8)
MKNK2 (human) = MKNK2 (human) (UniProt Q9HBH9)
NEK2 (human) = NEK2 (human) (UniProt P51955)
PASK (human) = PASK (human) (UniProt Q96RG2)
PLK1 (human) = PLK1 (human) (UniProt P53350)
PRKCD (human) = PRKCD (human) (UniProt Q05655)
PTK2 (human) = PTK2 (human) (UniProt Q05397)
PTK6 (human) = PTK6 (human) (UniProt Q13882)
RAF1 (human) = RAF1 (human) (UniProt P04049)
ROCK1 (human) = ROCK1 (human) (UniProt Q13464)
RPS6KA2 KD1 KD2 (human) = RPS6KA2 KD1 KD2 (human) (UniProt Q15349)
RPS6KB2 (human) = RPS6KB2 (human) (UniProt Q9UBS0)
SGK2 (human) = SGK2 (human) (UniProt Q9HBY8)
SRMS (human) = SRMS (human) (UniProt Q9H3Y6)
STK10 (human) = STK10 (human) (UniProt O94804)
STK11 (human) = STK11 (human) (UniProt Q15831)
STK16 (human) = STK16 (human) (UniProt O75716)
TAOK1 (human) = TAOK1 (human) (UniProt Q7L7X3)
TNK2 (human) = TNK2 (human) (UniProt Q07912)
TYRO3 (human) = TYRO3 (human) (UniProt Q06418)

Chain of FGFR4 (human) (P22455 whole entry, looked up): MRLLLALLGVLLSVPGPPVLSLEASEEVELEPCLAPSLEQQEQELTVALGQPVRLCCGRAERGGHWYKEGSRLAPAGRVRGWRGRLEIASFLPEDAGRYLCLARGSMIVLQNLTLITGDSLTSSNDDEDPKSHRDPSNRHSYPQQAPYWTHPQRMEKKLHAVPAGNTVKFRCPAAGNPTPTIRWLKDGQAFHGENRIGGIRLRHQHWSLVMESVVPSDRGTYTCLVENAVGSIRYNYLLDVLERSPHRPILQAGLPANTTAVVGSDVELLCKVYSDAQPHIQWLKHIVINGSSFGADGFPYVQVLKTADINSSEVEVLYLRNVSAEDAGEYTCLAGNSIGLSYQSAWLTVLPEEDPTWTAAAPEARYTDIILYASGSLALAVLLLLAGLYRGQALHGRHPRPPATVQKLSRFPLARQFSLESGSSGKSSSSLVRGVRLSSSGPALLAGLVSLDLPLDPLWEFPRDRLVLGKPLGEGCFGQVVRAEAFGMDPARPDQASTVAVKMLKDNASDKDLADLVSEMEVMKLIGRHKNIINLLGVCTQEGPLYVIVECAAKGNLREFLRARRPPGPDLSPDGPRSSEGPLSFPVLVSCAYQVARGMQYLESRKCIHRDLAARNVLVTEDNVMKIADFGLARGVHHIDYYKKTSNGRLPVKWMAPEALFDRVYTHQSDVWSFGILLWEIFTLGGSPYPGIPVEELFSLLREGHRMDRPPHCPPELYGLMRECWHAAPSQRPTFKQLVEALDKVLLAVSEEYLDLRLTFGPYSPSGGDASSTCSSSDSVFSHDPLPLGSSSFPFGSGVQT
Chain of MAPK12 (human) (P53778 whole entry, looked up): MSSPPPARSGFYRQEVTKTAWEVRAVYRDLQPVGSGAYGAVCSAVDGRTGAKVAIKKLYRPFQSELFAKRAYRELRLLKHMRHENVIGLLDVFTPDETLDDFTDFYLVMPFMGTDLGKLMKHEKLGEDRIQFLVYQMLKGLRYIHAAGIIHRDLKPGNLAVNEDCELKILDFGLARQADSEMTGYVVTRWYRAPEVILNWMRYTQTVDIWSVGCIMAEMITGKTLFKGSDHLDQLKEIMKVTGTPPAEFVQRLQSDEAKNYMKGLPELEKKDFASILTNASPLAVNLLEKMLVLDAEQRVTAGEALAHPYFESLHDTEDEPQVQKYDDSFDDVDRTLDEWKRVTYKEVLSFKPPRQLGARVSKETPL
Chain of JAK3 JH1 JH2 (human) (P52333 whole entry, looked up): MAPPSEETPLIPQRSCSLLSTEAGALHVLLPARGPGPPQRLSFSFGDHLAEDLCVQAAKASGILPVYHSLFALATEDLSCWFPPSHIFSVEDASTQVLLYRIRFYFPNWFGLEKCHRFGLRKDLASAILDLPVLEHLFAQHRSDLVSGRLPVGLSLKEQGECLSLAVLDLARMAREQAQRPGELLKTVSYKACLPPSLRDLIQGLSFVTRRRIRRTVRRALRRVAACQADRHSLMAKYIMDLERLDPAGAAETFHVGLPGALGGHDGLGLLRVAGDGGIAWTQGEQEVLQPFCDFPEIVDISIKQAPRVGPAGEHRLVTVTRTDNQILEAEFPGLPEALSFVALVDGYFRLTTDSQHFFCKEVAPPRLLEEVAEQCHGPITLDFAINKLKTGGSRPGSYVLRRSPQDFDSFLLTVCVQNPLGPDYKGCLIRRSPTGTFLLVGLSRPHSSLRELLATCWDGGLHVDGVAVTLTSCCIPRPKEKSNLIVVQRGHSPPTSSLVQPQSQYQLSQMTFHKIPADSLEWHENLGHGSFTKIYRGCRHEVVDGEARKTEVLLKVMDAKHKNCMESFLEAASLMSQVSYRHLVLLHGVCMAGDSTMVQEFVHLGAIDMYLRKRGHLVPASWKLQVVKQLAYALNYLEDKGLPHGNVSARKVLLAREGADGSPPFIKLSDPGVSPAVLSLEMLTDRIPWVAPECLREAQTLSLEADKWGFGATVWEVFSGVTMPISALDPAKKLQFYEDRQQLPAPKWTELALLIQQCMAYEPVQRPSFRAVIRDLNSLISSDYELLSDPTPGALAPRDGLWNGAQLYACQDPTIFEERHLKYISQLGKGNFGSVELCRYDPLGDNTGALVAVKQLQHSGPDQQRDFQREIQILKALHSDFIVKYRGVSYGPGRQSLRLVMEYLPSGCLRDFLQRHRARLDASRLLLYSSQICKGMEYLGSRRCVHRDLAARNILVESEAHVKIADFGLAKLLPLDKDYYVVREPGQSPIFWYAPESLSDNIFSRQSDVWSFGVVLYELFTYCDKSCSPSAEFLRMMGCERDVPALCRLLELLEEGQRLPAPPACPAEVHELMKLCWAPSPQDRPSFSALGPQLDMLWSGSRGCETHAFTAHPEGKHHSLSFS
Chain of ACVR1 (human) (Q04771 whole entry, looked up): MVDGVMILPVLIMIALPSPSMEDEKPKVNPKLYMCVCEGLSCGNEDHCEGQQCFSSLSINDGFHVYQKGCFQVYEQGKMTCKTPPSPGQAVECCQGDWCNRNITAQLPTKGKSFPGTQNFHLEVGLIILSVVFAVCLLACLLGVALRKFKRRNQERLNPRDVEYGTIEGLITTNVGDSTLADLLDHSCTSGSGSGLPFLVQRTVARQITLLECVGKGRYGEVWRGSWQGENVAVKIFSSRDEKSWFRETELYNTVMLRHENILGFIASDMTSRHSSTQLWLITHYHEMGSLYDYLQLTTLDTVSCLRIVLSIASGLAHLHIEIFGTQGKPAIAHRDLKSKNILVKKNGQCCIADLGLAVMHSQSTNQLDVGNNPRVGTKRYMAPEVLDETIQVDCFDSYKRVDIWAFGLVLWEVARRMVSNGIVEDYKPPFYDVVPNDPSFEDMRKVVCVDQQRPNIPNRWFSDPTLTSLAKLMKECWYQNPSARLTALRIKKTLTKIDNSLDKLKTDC
Chain of SGK2 (human) (Q9HBY8 whole entry, looked up): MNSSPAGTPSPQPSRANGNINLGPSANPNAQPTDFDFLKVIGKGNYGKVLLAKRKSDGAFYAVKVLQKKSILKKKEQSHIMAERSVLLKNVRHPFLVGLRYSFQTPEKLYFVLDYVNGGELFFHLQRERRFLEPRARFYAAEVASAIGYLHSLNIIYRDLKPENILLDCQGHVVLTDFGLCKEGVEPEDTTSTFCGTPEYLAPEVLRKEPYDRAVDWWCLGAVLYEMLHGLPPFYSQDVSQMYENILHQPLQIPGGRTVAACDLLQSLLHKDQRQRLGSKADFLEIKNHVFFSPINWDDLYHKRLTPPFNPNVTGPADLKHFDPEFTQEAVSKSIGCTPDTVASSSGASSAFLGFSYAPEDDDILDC
Chain of PLK1 (human) (P53350 whole entry, looked up): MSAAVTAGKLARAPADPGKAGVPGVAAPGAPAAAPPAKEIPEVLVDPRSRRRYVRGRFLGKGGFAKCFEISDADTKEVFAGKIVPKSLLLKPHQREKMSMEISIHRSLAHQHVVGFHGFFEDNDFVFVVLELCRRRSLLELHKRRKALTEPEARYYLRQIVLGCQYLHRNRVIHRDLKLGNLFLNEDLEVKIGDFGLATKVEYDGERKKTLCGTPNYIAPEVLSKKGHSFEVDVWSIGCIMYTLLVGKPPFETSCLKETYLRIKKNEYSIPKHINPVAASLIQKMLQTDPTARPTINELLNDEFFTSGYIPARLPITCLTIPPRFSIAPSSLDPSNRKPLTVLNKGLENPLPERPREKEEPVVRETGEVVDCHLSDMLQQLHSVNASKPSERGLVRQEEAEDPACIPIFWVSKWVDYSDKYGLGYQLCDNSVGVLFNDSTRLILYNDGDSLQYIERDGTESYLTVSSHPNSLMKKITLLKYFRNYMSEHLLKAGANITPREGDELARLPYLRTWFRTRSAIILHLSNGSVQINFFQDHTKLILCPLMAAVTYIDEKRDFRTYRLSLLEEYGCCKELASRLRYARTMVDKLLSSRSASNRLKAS
Chain of FGFR2 (human) (P21802 whole entry, looked up): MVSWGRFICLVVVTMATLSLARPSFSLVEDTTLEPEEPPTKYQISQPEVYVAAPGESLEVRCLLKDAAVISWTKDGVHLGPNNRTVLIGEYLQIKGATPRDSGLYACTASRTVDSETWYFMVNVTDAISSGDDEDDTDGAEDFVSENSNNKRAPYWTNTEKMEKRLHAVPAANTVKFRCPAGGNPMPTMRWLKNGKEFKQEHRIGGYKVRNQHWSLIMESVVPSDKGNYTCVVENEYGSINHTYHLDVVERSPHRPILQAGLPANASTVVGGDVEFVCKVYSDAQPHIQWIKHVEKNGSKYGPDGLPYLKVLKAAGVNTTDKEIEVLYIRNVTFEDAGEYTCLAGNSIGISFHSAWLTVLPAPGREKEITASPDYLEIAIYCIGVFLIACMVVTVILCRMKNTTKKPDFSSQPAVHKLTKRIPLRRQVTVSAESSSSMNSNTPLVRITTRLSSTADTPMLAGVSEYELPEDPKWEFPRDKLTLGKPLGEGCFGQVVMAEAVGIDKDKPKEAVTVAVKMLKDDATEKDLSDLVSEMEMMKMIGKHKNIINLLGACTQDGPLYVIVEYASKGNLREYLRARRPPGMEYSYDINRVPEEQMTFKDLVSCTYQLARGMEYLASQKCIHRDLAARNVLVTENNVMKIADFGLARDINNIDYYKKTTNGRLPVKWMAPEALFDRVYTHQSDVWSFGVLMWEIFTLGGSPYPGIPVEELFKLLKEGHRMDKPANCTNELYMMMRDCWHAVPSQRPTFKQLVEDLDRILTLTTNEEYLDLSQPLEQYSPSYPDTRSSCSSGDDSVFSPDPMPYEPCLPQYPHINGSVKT
Chain of STK16 (human) (O75716 whole entry, looked up): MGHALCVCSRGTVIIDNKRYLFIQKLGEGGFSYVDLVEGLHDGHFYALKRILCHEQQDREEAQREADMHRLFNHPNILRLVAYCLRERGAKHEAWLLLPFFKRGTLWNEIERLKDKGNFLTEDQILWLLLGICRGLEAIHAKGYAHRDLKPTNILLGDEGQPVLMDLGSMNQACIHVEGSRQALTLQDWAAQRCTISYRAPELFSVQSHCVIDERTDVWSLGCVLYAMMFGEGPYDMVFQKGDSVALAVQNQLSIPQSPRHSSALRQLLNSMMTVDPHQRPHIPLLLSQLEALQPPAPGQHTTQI

SMILES: O=C(c1ccccc1)c1ccc(N2CCOCC2)cc1O
- residual activity (ACVR1 (human)): 107%
- residual activity (AKT3 (human)): 105%
- residual activity (BMX (human)): 90.4%
- residual activity (CAMK4 (human)): 94.7%
- residual activity (CDK5 CDK5R1 p25 (human)): 98.8%
- residual activity (CLK4 (human)): 101%
- residual activity (CSF1R (human)): 99.7%
- residual activity (CSNK1E (human)): 97.7%
- residual activity (ERBB2 (human)): 94.8%
- residual activity (ERBB4 (human)): 102%
- residual activity (FGFR2 (human)): 99.1%
- residual activity (FGFR3 (human)): 104%
- residual activity (FGFR4 (human)): 106%
- residual activity (JAK3 JH1 JH2 (human)): 103%
- residual activity (LTK (human)): 107%
- residual activity (MAP3K10 (human)): 100%
- residual activity (MAP4K4 (human)): 86.4%
- residual activity (MAPK12 (human)): 100%
- residual activity (MAPK14 (human)): 96.3%
- residual activity (MAPK3 (human)): 102%
- residual activity (MAPKAPK5 (human)): 99.8%
- residual activity (MET (human)): 115%
- residual activity (MINK1 (human)): 91.1%
- residual activity (MKNK2 (human)): 90.6%
- residual activity (NEK2 (human)): 101%
- residual activity (PASK (human)): 94.3%
- residual activity (PLK1 (human)): 104%
- residual activity (PRKCD (human)): 98.8%
- residual activity (PTK2 (human)): 109%
- residual activity (PTK6 (human)): 98.2%
- residual activity (RAF1 (human)): 95.9%
- residual activity (ROCK1 (human)): 93.4%
- residual activity (RPS6KA2 KD1 KD2 (human)): 102%
- residual activity (RPS6KB2 (human)): 100%
- residual activity (SGK2 (human)): 105%
- residual activity (SRMS (human)): 93.9%
- residual activity (STK10 (human)): 97.9%
- residual activity (STK11 (human)): 104%
- residual activity (STK16 (human)): 104%
- residual activity (TAOK1 (human)): 100%
- residual activity (TNK2 (human)): 104%
- residual activity (TYRO3 (human)): 101%

SMILES: Nc1ncnc2c1cnn2-c1ccccc1
- residual activity (ACVR1 (human)): 101%
- residual activity (AKT3 (human)): 102%
- residual activity (BMX (human)): 96.8%
- residual activity (CAMK4 (human)): 104%
- residual activity (CDK5 CDK5R1 p25 (human)): 102%
- residual activity (CLK4 (human)): 76.7%
- residual activity (CSF1R (human)): 105%
- residual activity (CSNK1E (human)): 81.5%
- residual activity (ERBB2 (human)): 107%
- residual activity (ERBB4 (human)): 101%
- residual activity (FGFR2 (human)): 100%
- residual activity (FGFR3 (human)): 97.9%
- residual activity (FGFR4 (human)): 94.8%
- residual activity (JAK3 JH1 JH2 (human)): 97.4%
- residual activity (LTK (human)): 96.8%
- residual activity (MAP3K10 (human)): 88.6%
- residual activity (MAP4K4 (human)): 94.4%
- residual activity (MAPK12 (human)): 90.6%
- residual activity (MAPK14 (human)): 89.2%
- residual activity (MAPK3 (human)): 90.1%
- residual activity (MAPKAPK5 (human)): 87.1%
- residual activity (MET (human)): 97.1%
- residual activity (MINK1 (human)): 88.9%
- residual activity (MKNK2 (human)): 72.7%
- residual activity (NEK2 (human)): 98.8%
- residual activity (PASK (human)): 96.8%
- residual activity (PLK1 (human)): 98.9%
- residual activity (PRKCD (human)): 93%
- residual activity (PTK2 (human)): 94.9%
- residual activity (PTK6 (human)): 92%
- residual activity (RAF1 (human)): 95.4%
- residual activity (ROCK1 (human)): 93.8%
- residual activity (RPS6KA2 KD1 KD2 (human)): 92.5%
- residual activity (RPS6KB2 (human)): 87.5%
- residual activity (SGK2 (human)): 98.4%
- residual activity (SRMS (human)): 104%
- residual activity (STK10 (human)): 95.4%
- residual activity (STK11 (human)): 93.9%
- residual activity (STK16 (human)): 94.3%
- residual activity (TAOK1 (human)): 89.5%
- residual activity (TNK2 (human)): 90.3%
- residual activity (TYRO3 (human)): 102%
